# From patent US6632843B1, “Treatment of bruxism” (priority 2000, dated 2003)
# Legend:
# [1] = after application
# Text: Cyclobenzaprine is a 5-HT2 receptor antagonist and its muscle relaxant effect is due to inhibition of serotonergic neurons.
# [2] = taken orally; cited from earlier work
smiles,measurement,setting,value
"CN(C)CCC=C1c2ccccc2C=Cc2ccccc21 [cyclobenzaprine, Cyclobenzaprine]",time to clinical improvement,[1],as early as the first 20 minutes
same,half life,[2],as long as one to three days
same,plasma protein binding,[2],highly bound to plasma proteins
